# Test results published in patent US20090047314A1, “MICROENCAPSULATION SYSTEMS AND APPLICATIONS OF SAME” (Centre National de la Recherche Scientifique (C.N.R.S.), priority 2003, published 2009).
# Experiment: Encapsulation of molecule in the beads (determination by HPLC)
# Type: physicochemical
# Conditions: α-cyclodextrin/soya oil beads
# Description: The procedure is carried out as described in Example 1, but using, as molecules of interest, molecules that are active in therapeutics or that can be used in cosmetics, such as pigments or dyes, vitamin E acetate, benzophenone or isotretinoin.
# In addition, it was shown that 30% of vitamin E acetate is encapsulated (determination by HPLC).
compound,measurement,value
CC(=O)Oc1c(C)c(C)c2c(c1C)CCC(C)(CCC[C@H](C)CCC[C@H](C)CCCC(C)C)O2 (stereo partly shown) [vitamin E acetate],fraction of molecule encapsulated in the beads,30%
